The text below walks through data of patent US9371265B2, “Compositions and methods related to inhibitors of JAK kinase” (EP PHARMA, INC., priority 2012, dated 2016).

Each structure is given as a SMILES string.

The test system of one data set is SU-DHL-1 tumors. The experiment in a line: SU-DHL-1 xenograft human lymphoma model. Format: in vivo, SCID/NOD mice. The protocol: FIGS. 9A-9B Pharmacokinetics and efficacy of EP009 in vivo. (A) Sprague Dawley rats were administered EP009 by oral gavage (200 mg/kg) and pharmacokinetics measured by analysis of plasma concentrations at indicated time points. Values represent mean concentrations, while error bars represent the standard deviation (n=5). (B) Therapeutic study of EP009 in SU-DHL-1 model in SCID/NOD mice.
Severe combined immunodeficient/nonobese diabetic (SCID/NOD) mice were purchased from Charles River (Milan, Italy). The SU-DHL-1 model, 28 which was established by subcutaneous injection of 1×10^7 SU-DHL-1 cells in the left flank of SCID/NOD mice, served as the xenograft human lymphoma model. Tumor masses were measured with caliper in two perpendicular diameters in a blind fashion to determine the longest diameter. Progressively growing masses >1 mm in diameter were regarded as tumors. Mice were divided into three groups (n=8/group) and treatments initiated when tumors were established and measurable (day 16 after tumor challenge). Control mice received oral gavage of saline (placebo), while treated mice received EP009 orally (100 or 200 mg/kg) three times per week for six weeks. The study was terminated when tumors began to show signs of ulcerations and measurements became inaccurate (day 58). All animal were maintained in the animal facility of the Molecular Biotechnology Center, University of Turin and treated in accordance with the European guidelines.

A further data set deals with PARP. The data set can be described thus: PARP cleavage in SU-DHL-1 cells (Luminex multiplex). Format: cell-based, human. The following applies: 24 hours, dose-dependent. The protocol:
FIGS. 7A-7C. EP009 reduces ALCL cell viability through induction of caspase 3 mediated apoptosis. (A) SUP-M2, SU-DHL-1 or H2228 cells were cultured with increasing amounts of EP009 (0-10 μM) for 72 hours and cell viability measured with the MTS tetrazolium salt assay. Values represent mean absorbance (OD490-OD650 nm) normalized to vehicle (PBS) treated control cells, while error bars represent the standard deviation (n=3). (B) SU-DHL-1 cells were treated with vehicle (PBS) or increasing amounts of EP009 (0-50 μM) for 24 hours. Cells were then lysed, clarified, and subjected to Luminex multiplex analysis to detect activated caspase 3 and (C) cleaved PARP. Values represent MFI normalized to corresponding GAPDH MFI, while error bars represent the standard deviation (n=2). Representative data from three independent experiments are shown. Statistical significance was determined using Student's t-test. (*, p<0.05).
The MILLIPLEX MAP 8-plex Multi-Pathway Signaling Phosphoprotein kit (Millipore) was used to detect phosphorylated ERK1/2 (Thr185/Tyr187), STAT3 (Ser727), JNK1/2 (Thr183/Tyr185), p70 S6 kinase (Thr412), IκBα (Ser32), STAT5A/B (Tyr694/699), CREB (Ser133), and p38 (Thr180/Tyr182). The MILLIPLEX MAP 5-plex STAT Phosphoprotein kit (Millipore) was used to detect phosphorylated STAT1 (Tyr701), STAT2 (Tyr690), STAT3 (Tyr705), STAT5A/B (Tyr694/699), and STAT6 (Tyr641). […]

In the next data set the target is CDK3 (Homo sapiens, UniProt Q00526). The experiment in a line: Kinase panel: CDK3. The format is biochemical. The following applies: 10 μM EP009. The protocol: (§1) Achieving JAK3 selectivity remains a significant challenge in the development of new small molecules for the treatment of cancer and immune-derived diseases. As such, the inventors employed cell-based screening assays of small-molecule libraries based upon the chemical scaffold of the established JAK3 inhibitor NC1153 (Stepkowski et al., J Immunol. (2005), 175(7):4236-4246) EP009 (FIG. 2A) was selected as a lead compound due to improved intrinsic stability (>95% purity in various solvents at 37° C. for 24 hours; FIG. 3) and high-degree of JAK3 selectivity. To test JAK3 versus JAK2 specificity of EP009, the IL-2/JAK3-dependent Kit225, and IL-3/JAK2-dependent BaF/3 cell lines were used. Kit225 and BaF/3 cells growing in the presence of IL-2 or IL-3, respectively, were treated with ascending concentrations of EP009 for 12 hours and cellular JAK3 and JAK2 tyrosine phosphorylation levels detected by Western blot analysis (FIGS. 2B and 2C). Following densitometric analysis, EP009 was determined to dose-dependently reduce IL-2-mediated JAK3 tyrosine phosphorylation with a cellular 50% inhibitory concentration (IC50) between 10 and 20 μM (FIG. 2B). […] To globally evaluate specificity, the inhibitory activity of EP009 was measured against a panel of protein kinases distributed throughout the kinome using the scanEDGE profiling service (KINOMEscan). […]
CDK3, sequence (Q00526 whole entry): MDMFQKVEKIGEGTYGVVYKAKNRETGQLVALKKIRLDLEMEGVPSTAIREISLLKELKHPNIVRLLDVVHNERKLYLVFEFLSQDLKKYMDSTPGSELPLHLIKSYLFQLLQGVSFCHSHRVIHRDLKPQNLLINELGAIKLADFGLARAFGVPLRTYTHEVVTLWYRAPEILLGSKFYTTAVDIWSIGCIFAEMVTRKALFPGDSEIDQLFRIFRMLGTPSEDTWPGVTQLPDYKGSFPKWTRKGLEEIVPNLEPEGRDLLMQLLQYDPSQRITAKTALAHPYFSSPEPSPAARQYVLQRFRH

For a further data set, the target named is IKK-alpha (Homo sapiens, UniProt O15111). The data set can be described thus: Kinase panel: IKK-alpha. Format: biochemical. The following applies: 10 μM EP009. The protocol: as §1
IKK-alpha, sequence (O15111 whole entry): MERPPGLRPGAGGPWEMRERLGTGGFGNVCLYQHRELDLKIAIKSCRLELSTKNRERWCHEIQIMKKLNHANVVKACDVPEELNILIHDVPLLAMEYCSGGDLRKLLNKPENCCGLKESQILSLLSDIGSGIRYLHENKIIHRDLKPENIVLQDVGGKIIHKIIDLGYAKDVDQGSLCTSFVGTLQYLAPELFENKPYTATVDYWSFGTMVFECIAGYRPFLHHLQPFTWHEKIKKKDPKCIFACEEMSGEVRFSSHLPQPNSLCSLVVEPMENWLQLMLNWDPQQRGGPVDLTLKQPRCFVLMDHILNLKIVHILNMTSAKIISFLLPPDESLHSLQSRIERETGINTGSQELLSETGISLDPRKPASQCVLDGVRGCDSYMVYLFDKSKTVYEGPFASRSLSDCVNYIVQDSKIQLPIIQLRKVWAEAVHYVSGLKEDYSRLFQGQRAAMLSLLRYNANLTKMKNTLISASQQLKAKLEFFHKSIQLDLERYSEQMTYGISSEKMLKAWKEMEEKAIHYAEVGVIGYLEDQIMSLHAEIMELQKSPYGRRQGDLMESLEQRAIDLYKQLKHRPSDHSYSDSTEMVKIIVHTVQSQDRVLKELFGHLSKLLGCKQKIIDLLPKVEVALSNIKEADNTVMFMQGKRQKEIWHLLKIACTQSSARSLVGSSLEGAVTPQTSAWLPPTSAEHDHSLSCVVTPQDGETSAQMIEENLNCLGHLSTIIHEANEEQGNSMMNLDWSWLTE
A further data set has as its target AKT2 (Homo sapiens, UniProt P31751). The data set can be described thus: Kinase panel: AKT2. The format is biochemical. The following applies: 10 μM EP009. The protocol:
as §1

AKT2, sequence (P31751 whole entry): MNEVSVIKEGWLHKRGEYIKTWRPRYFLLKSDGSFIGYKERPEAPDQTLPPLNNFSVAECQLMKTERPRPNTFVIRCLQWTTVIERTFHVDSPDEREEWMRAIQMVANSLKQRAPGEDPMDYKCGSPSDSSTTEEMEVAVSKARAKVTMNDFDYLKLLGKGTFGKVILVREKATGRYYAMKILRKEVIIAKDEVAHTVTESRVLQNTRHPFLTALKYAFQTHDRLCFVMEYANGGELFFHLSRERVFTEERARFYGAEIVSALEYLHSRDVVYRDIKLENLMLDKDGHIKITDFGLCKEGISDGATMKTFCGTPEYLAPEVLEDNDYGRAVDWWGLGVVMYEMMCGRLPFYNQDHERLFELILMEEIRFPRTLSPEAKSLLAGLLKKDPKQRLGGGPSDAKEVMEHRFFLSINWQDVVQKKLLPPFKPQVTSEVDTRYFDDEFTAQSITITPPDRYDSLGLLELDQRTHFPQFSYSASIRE

On to `C=C1CCCCCCCCCC(CO)C1=O` (stereo not shown) [EP009, 2-(Hydroxymethyl)-12-methylenecyclododecanone], for which the tumor growth inhibition in the data set with SU-DHL-1 tumors (oral 100 mg/kg three times per week, p<0.05) turned out to be 37.5%; in the data set on SU-DHL-1 tumors (oral 200 mg/kg three times per week, p<0.01) it was 51%. Besides, the body weight changes entry in the data set on SU-DHL-1 tumors (oral 100 and 200 mg/kg) is “No significant body weight changes”. Besides, the PARP cleavage result in the data set on PARP is recorded as “increased”. The results for the “Kinase Activity (% of Control)” value on CDK3, at IKK-alpha and on AKT2 were 100 % of Control, 87 % of Control and 100 % of Control, respectively.
